The record followed here is US11110105B2, “Compounds, composition and uses thereof for treating cancer” (INSTITUT GUSTAVE ROUSSY, priority 2017, dated 2021).

Series [1] concerns mouse sarcoma cell line MCA205. Description: B3Z SL8-specific T-cell activation assay, MCA205. The series is classed as cell-based. As to conditions: MCA205, Globin-intron-SL8. As for the experimental part: B3Z SL8-specific T-cell activation after co-culture with (A) human melanoma A375, human lung carcinoma A549 or normal human lung fibroblast MRC5 cell lines, all transiently expressing the intron-derived SL8 peptide and the H2-K^b molecules and treated upstream with 2,5 μM or 6,25 μM isoginkgetin for 18 hours; or with (B) mouse sarcoma MCA205 or mouse melanoma B16F10 cell lines both transiently expressing the intron-derived SL8 peptide and treated upstream with 6,25 μM, 15 μM or 25 μM isoginkgetin for 18 hours. […]
Data are given as mean ±SEM. *P<0.05, **P<0.01, ***P<0.001 (unpaired student t test). […] Tumor size was assessed every 3 to 4 days until reaching the established ethical endpoints. […]
MCA205 and B16F10 mouse cell lines are transfected with the plasmid YFP-Globin-SL8-intron or with the PCDNA3 empty plasmid (negative control) with the transfection reagent jetPRIME (Ozyme) or GeneJuice (Millipore) respectively according to each manufacturer protocol. […] Finally, the β-galactosidase activity is measured using the FLUOstar OPTIMA (BMG LABTECH Gmbh, Offenburg, Germany). Results are expressed as mean ±SEM. *P<0.05, **P<0.01, ***P<0.001 (unpaired student t test).

The nature of series [2]: MTT assay on MRC5 cell line. Format: cell-based. As to conditions: human, MRC5 fibroblast cells, read-out: % cell viability (±SEM). As for the experimental part: MCA205 mouse sarcoma cell line is cultured at 37° C. under 5% CO2 in RPMI 1640 medium (Life Technologies) in the presence of 1% glutamine, 1% sodium pyruvate, 1% non-essential amino-acids, 1% penicillin/streptomycin and 10% FBS (Life Technologies) under standard conditions. B16F10 mouse melanoma cell line, MRC5 human fibroblast cell line and A375 human melanoma cell line are cultured at 37° C. under 5% CO2 in DMEM medium (Life Technologies) containing 1% glutamine, 1% penicillin/streptomycin and 10% FCS under standard conditions. A549 human lung carcinoma cell line is cultured at 37° C. under 5% CO2 in DMEM/F12+Glutamax I in the presence of 1% Hepes, 1% sodium pyruvate and 10% FBS under standard conditions. Stable MCA205-Globin-SL8-intron cell line are cultured under the same condition as MCA205 cell line with additional 2 mg/ml G418 (geneticin from Life Technologies) for selection. Stable B16F10-Globin-SL8-intron cell line are cultured under the same condition as B16F10 cell line with additional 2 mg/ml G418 (geneticin from Life Technologies) for selection. The SL8/Kb-specific (B3Z) T-cell reporter hybridoma are cultured at 37° C. under 5% CO2 in RPMI 1640 medium (Life Technologies) in the presence of 1% glutamine, 0.1% β-galactosidase, 1% penicillin/streptomycin and 10% FCS under standard conditions. […]
A general note: Formazan colour is commonly taken as a measure of viable cells.

Series [3] concerns B16F10 globin-SL8-intron tumors. Description: Tumor challenge, B16F10 globin-SL8-intron in immunodeficient Nu/Nu nude mice. Format: in vivo, mouse. As to conditions: 18 mg/kg intraperitoneally, days 5, 10 and 15. On the procedure:
(A) Experimental settings. Growth of (B) sarcoma MCA205 or (C) melanoma B16F10 cells that both stably express the globin-SL8-intron construct or (D) MCA205 Wild Type (WT) or (E) B16F10 WT cells that were subcutaneously inoculated on the flank of immunocompetent C57BL/6 mice injected intraperitoneally with 12 mg/kg or 18 mg/kg of isoginkgetin at days 5, 10 and 15 after inoculation. Tumor size was assessed every 3 to 4 days until reaching the established ethical endpoints. Each line represents the tumor size in area (mm^2) of 6 mice in each group. Size in area (mm^2) of (F) MCA205 globin-SL8-intron, (G) B16F10 globin-SL8-intron, (H) MCA205 WT or (I) B16F10 WT tumors subcutaneously inoculated on the flank of immunodeficient Nu/Nu Nude mice injected intraperitoneally with 18 mg/kg of isoginkgetin at days 5, 10 and 15 after inoculation. Data are presented at the day before the endpoints are reached.
Each line represents the tumor size in area (mm^2) of at least 6 mice in each group. The C right panel represents the tumor size at day 27. […]
Inventors then assessed the requirement of the immune response for isoginkgetin to reduce tumor growth Immunodeficient Nu/Nu nude mice were inoculated subcutaneously with either MCA205 or B16F10 cells that stably express the Globin-intron-SL8 or WT, and were treated with the same settings as previously described (FIG. 9A). […]

Take `COc1ccc(-c2cc(=O)c3c(OC)cc(OP(=O)([O-])[O-])c(-c4cc(-c5cc(=O)c6c(OC)cc(OP(=O)([O-])[O-])cc6o5)ccc4OC)c3o2)cc1.[Na+].[Na+].[Na+].[Na+]` [IM2P2]: in series [1] (15 μM or 35 μM), the “intron-SL8-derived antigen presentation (B3Z activation)” value was “decreases its presentation”. In series [1] (15 μM, 25 μM or 35 μM), the “PTPs-dependent (intron-derived SL8) antigen presentation (B3Z activation)” value is recorded as “does not increase the presentation”.
What is called viability is the share of living cells, or the viability signal relative to a control. As for `COc1ccc(-c2cc(=O)c3c(O)cc(O)c(-c4cc(-c5cc(=O)c6c(O)cc(O)cc6o5)ccc4OC)c3o2)cc1` [Isoginkgetin, isoginkgetin], the viability at 2.5 µM in series [2] (MRC5, 2.5 μM) amounted to 100%. The viability at 6.25 µM in series [2] (MRC5, 6.25 μM) stood at 100%. In series [3], the tumor growth result is “No effect”.
